Activity calls are given as the source filed them.
Key:
H9c2 = test: cells; assay type: functional, cell-based; details: Rattus norvegicus, H9c2, Myocardium;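 note: confirmatory concentration-response retest of ultra-high-throughput screening hits for modulation of myocardial damage; cell death induced by hydrogen peroxide oxidative stress; compound pretreatment for 60 min then peroxide exposure for 2 h; potency is for protecting the cells against peroxide damage rather than for killing them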
[1] = molecular target: T1, Mannose-6-phosphate isomerase (Homo sapiens, UniProt P34949); test: MPI inhibition at elevated mannose 6-phosphate – biochemical, fluorescence intensity, high mannose 6-phosphate, primary screen (AID 1220)
T1 sequence (P34949 whole entry): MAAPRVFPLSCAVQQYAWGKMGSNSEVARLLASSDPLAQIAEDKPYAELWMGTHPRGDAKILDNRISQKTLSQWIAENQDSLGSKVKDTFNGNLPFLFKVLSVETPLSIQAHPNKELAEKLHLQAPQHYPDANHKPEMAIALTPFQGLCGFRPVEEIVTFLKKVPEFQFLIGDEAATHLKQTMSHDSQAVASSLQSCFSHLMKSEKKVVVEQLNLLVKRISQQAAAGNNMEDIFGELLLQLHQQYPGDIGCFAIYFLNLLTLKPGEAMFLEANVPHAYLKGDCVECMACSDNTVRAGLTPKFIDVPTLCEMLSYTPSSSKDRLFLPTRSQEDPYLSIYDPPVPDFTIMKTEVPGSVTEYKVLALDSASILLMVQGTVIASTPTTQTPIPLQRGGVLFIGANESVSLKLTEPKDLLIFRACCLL

[2] = molecular target: T2, Ubiquitin-conjugating enzyme E2 N (Homo sapiens, UniProt P61088); assay type: functional;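 note: Dose-response confirmation in a TR-FRET assay detecting UBC13-driven polyubiquitin chain formation, inhibition measured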
T2 sequence (P61088 whole entry): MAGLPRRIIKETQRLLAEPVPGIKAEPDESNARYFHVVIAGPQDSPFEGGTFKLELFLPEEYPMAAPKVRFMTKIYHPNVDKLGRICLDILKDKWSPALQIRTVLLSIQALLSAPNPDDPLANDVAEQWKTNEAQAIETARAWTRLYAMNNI

[3] = molecular target: T3, Short transient receptor potential channel 4 (Mus musculus, UniProt Q9QUQ5); test: block of DAMGO-driven TRPC4 calcium entry – cell-based, HEK293 TRPC4/mu-opioid, Fluo-4 calcium, dose response (AID 434942); assay type: functional;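 note: potency of inhibitors blocking the TRPC4 calcium response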
T3 sequence (Q9QUQ5 whole entry): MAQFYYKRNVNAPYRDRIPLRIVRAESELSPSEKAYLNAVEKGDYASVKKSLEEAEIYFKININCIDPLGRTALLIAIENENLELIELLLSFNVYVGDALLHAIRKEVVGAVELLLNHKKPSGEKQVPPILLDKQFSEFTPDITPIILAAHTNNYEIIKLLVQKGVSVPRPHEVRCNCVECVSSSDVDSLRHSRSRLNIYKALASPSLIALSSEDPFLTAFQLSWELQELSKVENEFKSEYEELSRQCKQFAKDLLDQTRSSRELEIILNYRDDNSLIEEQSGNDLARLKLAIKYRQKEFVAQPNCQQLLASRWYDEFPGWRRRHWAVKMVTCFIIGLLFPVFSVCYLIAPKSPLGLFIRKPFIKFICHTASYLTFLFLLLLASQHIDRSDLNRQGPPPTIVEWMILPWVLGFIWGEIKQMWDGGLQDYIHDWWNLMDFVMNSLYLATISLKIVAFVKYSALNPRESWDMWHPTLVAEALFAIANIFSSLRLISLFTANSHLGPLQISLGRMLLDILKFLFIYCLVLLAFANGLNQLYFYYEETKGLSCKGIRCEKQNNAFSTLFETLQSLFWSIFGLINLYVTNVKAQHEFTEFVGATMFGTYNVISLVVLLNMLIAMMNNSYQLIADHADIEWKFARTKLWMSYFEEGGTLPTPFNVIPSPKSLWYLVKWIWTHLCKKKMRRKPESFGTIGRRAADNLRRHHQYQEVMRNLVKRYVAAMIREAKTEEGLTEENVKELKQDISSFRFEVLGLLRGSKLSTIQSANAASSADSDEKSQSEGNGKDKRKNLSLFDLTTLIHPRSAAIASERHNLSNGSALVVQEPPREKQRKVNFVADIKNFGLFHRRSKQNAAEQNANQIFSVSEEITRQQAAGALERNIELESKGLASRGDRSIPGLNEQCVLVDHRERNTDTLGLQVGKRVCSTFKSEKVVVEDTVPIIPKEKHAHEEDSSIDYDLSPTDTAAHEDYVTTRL

[4] = molecular target: T4, Corticotropin-releasing factor receptor 2/Corticotropin-releasing factor-binding protein (Homo sapiens, UniProt P24387+Q13324); test: activators of CRF receptor 2 with binding protein – uHTS hits, confirmation (AID 602473); assay type: functional; details: read-out: EC50_Mean
T4 sequence (Q13324 whole entry): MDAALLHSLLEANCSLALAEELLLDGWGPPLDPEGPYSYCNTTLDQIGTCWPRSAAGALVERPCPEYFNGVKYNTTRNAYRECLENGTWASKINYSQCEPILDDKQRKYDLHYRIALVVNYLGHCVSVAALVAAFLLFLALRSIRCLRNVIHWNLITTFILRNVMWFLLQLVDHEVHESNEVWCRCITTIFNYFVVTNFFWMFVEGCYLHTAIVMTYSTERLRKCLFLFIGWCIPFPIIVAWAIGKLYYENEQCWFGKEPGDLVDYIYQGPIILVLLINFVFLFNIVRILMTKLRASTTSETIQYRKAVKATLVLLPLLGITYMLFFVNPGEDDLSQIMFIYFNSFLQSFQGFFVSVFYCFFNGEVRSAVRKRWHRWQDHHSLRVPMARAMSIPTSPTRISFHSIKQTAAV
T4 sequence (P24387 whole entry): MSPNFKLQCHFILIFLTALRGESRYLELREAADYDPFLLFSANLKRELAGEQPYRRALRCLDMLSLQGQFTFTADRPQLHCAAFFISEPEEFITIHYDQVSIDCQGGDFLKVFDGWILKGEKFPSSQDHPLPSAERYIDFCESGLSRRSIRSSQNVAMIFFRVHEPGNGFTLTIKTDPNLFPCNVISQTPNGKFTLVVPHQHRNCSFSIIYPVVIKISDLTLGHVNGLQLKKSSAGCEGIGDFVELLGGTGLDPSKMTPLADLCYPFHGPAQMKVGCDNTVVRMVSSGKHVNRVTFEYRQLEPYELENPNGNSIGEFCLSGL

[5] = molecular target: T5, Zinc finger protein mex-5 (Caenorhabditis elegans, UniProt Q9XUB2); test: potency of MEX-5 RNA-binding blockers – biochemical, C. elegans, fluorescence polarization, dose response (AID 1960)
T5 sequence (Q9XUB2 whole entry): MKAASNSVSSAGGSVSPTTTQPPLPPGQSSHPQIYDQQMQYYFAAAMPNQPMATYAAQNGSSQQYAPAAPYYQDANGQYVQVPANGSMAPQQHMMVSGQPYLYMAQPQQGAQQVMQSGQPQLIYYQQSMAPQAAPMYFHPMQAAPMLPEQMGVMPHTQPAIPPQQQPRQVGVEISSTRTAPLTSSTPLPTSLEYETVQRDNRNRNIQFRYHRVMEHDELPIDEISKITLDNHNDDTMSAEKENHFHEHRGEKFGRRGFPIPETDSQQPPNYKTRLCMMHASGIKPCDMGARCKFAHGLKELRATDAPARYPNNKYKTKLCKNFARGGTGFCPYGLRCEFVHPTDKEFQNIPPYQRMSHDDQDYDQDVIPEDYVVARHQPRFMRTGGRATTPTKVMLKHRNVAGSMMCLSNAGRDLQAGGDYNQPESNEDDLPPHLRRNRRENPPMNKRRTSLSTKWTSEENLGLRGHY

[6] = molecular target: T4, Corticotropin-releasing factor receptor 2/Corticotropin-releasing factor-binding protein; test: Dose Response confirmation of uHTS hits for small molecule antagonists of the CRF-binding protein and CRF-R2 receptor complex.; assay type: functional; details: read-out: IC50_Mean
[7] = molecular target: T6, RNA-binding protein pos-1 (Caenorhabditis elegans, UniProt G5EF15); test: disruptors of C. elegans POS-1 RNA interaction – biochemical, fluorescence polarization, dose response (AID 1964);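 note: purified POS-1 fused to maltose binding protein made in E. coli; potency of compounds blocking POS-1 binding to fluorescent RNA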
T6 sequence (G5EF15 whole entry): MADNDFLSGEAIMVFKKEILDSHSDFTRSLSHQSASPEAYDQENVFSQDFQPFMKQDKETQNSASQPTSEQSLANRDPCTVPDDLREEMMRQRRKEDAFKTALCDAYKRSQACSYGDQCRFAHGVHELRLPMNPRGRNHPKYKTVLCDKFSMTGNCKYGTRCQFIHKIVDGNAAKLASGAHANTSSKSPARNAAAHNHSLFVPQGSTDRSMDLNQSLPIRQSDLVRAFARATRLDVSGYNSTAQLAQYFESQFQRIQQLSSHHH

cells [8] = assay type: functional, cell-based
Caspase-6 = molecular target: T7, Caspase-6 (Homo sapiens, UniProt P55212); test: inhibition of CASP6 peptide cleavage – biochemical, VEID-R110 fluorescence, cherry-pick, dose response (AID 720632)
T7 sequence (P55212 whole entry): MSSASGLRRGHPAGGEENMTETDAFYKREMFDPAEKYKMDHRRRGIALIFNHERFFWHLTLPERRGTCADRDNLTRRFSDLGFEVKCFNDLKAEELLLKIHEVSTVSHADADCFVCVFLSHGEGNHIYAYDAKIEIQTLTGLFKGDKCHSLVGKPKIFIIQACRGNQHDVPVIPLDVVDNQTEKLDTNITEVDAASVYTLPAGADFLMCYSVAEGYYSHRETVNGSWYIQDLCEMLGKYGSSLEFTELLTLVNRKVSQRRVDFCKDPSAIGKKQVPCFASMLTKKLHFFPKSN

cells [9] = assay type: functional, cell-based; remark: listed apart in the source
[10] = molecular target: Luciferin 4-monooxygenase (Photinus pyralis, UniProt P08659); test: inhibition of purified Photinus pyralis luciferase – biochemical, luminescence, dose response (AID 1891)
Sequence of Luciferin 4-monooxygenase (P08659 whole entry): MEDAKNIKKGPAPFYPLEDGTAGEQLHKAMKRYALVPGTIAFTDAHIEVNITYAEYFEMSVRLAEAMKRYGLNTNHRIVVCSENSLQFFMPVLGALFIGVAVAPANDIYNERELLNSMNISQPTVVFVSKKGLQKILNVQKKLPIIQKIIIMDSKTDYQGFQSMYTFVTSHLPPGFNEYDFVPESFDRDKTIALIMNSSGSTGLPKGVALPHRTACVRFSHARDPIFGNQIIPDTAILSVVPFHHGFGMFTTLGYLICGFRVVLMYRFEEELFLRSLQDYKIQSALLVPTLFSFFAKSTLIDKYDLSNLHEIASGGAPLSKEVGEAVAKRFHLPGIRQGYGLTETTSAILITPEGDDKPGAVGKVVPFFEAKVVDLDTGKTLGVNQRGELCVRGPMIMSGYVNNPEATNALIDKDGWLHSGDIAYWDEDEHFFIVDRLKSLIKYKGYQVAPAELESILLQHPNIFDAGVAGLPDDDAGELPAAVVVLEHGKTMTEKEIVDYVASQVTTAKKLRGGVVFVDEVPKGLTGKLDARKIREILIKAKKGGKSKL

[11] = Luminescence Cell-Based Dose Confirmation HTS to Identify Inhibitors of Platelet Dense Granule Release. [Related pubchem assays: 1663 (Primary HTS), 1678 (Summary of Project)]; assay type: functional
[12] = P. falciparum Dd2 growth inhibitors, dose response, SYBR Green, cherry-picked samples (AID 1159567); assay type: functional, cell-based

NS(=O)(=O)c1cccc(NC(=O)COC(=O)Cc2nnc(O)c3ccccc23)c1
IC50 (H9c2): > 79 µM (inactive)

Oc1ccc(/C=N/N(Cc2ccccc2)c2ccccc2)c(O)c1O
IC50 [1]: > 50 µM (not active)

CC(C)n1c(NCc2cc(Cl)ccc2O)nc2ccccc21
IC50 [2]: > 20 µM (inactive)

COc1ccc(Br)cc1CNC(C)c1ccccc1 (configuration not stated)
EC50 [3]: 5.31 µM (active)

CCOC(=O)CCCSc1nnc(CCCCCN2C(=O)c3cccc4cccc(c34)C2=O)o1
IC50 [2]: > 20 µM (inactive)

O=C(Nc1ccccc1)N1CCN2C(=O)c3ccccc3C12c1ccccc1 (configuration not stated)
EC50 [3]: 2.11 µM (active)

CCN(C(=S)Nc1cccnc1)c1cccc2ccccc12
IC50 [1]: > 50 µM (not active)

N#C/C(=C\c1cn(-c2ccccc2)nc1-c1cccnc1)c1nnc2n1CCCCC2
IC50 (H9c2): 15.8 µM (active)

O=C/C(=C\Nc1ccccn1)c1nc2cc(Cl)ccc2o1
EC50 [4]: > 53 µM (inactive) | EC50 [5]: 36.4 µM (active) | IC50 (H9c2): > 79 µM (inactive) | IC50 [6]: > 47.1 µM (inactive) | EC50 [7]: 67.7 µM (active)

Cc1ccc(C=NNc2nc3c(=O)n(C)c(=O)n(C)c3[nH]2)cc1
IC50 (H9c2): > 79 µM (inactive)

COc1ccc(NC(=O)c2cccc(N3C(=O)C4CC=C(C)CC4C3=O)c2)c(OC)c1 (configuration not stated)
EC50 [3]: 0.0173 µM (active)

Cc1ccc(S(=O)(=O)NC2=NC(=O)/C(=C/c3cc([N+](=O)[O-])ccc3O)S2)cc1
EC50 (cells [8]): > 350 µM (not active) | AC50 (Caspase-6): 10.7 µM (active) | EC50 (cells [9]): 53.1 µM (active)

CCC(=O)/N=c1\sc2cc(F)cc(F)c2n1C
EC50 [10]: > 112 µM (not active) | EC50 [11]: > 112 µM (not active)

Cc1c(C(=O)O)c(C(=O)O)nc2ccc(N3CCOCC3)cc12
IC50 [1]: > 50 µM (not active)

CCOC(=O)C1CCN(c2cc3c(cc2NC(=O)c2ccccc2)n(C)c(=O)n3C)CC1
IC50 (H9c2): > 79 µM (inactive)

Cc1sc2nc(SCC(=O)N3CCCC3)nc(O)c2c1C
IC50 (H9c2): > 79 µM (inactive)

Cc1ccc(NC(=O)CCc2nc(O)c3ccccc3n2)cc1S(=O)(=O)N1CCOCC1
IC50 (H9c2): > 79 µM (inactive)

O=C(C[C@H]1C[C@@H]2c3cc(NC(=O)Nc4ccccc4)ccc3O[C@@H]2[C@H](CO)O1)NCc1ccccc1
AC50 [12]: 12.4 µM (active)

CCC1(c2ccccc2)NC(=O)N(CC(=O)Nc2cc(Cl)ccc2N2CCN(C)CC2)C1=O (configuration not stated)
IC50 [2]: > 20 µM (inactive)

Cc1cc(C)cc(NC(=O)c2cc(S(=O)(=O)N3CCCC3)cn2C)c1
EC50 [10]: > 112 µM (not active) | EC50 [11]: > 112 µM (not active)

COc1ccc(-c2cc3ccccc3oc2=O)cc1NC(=S)NC(=O)c1ccc2c(c1)OCCO2
IC50 [2]: > 20 µM (inactive)

Cc1nc2cc(NC(=O)Nc3ccccc3Cl)ccc2n1C
EC50 [10]: 5.05 µM (active) | EC50 [11]: 5.86 µM (active)

CN1CCN(/C=C2\SC(=S)NC2=O)CC1
EC50 [10]: > 112 µM (not active) | EC50 [11]: > 112 µM (not active)

Cc1nc2c3cc(Cl)ccc3n(CCN3CCCCC3)c2s1
EC50 [3]: 4.22 µM (active)

O=C(Cc1ccc(-n2c(=O)c3ccccc3n(Cc3ccc(F)cc3)c2=O)cc1)NCC1CCCO1 (configuration not stated)
EC50 [10]: > 112 µM (not active) | EC50 [11]: > 112 µM (not active)

Fc1ccccc1Nc1nc2c(s1)CCc1ccccc1-2
IC50 [1]: > 50 µM (not active)
